Key:
TK [1] = biological target: T1, TK (Homo sapiens, UniProt P29401); assay: Thiamine competition and washout time course of TK inhibition in cells; format: cell-based; set-up: endogenous in cells; host or cells: HCT116; conditions: HCT116 cells, TDM, thiamine 0-12 μM, 48 hours; 12 μM thiamine overcomes inhibition
T1 sequence (P29401 1-623): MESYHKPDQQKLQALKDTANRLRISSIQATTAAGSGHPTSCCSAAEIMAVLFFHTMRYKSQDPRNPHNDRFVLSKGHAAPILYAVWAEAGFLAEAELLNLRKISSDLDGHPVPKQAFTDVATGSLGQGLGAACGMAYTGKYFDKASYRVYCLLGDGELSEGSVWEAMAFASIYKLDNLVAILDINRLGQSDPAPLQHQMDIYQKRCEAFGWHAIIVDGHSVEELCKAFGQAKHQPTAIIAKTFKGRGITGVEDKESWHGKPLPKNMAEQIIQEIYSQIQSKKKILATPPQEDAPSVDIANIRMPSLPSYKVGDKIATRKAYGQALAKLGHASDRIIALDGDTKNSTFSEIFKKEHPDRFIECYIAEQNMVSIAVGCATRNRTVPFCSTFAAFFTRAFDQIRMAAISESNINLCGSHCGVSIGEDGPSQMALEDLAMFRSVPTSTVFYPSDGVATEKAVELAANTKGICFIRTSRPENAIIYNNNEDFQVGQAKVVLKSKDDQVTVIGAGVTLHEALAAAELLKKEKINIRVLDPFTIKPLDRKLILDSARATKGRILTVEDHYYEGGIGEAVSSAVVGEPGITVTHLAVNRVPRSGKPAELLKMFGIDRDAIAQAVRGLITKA
Protocol: HCT116 cells were plated in clear-bottomed 96-well culture plates, at a density of 8000 cells/well in TDM. The following morning, N3PT and different amounts of thiamine (12 μM, 2.4 μM, 0.48 μM, 0.096 μM, 0.0192 μM, 0 μM) were added to the cells. Forty-eight hours later, plates were inverted to remove media and blotted on paper towels to remove residual media. Plates were immediately assayed for enzymatic TK activity. 80 μl of lysis buffer was added to each well, and the cells incubated at RT for 10 min to allow cell lysis. After lysis, 20 μl of the aforementioned 5× reaction mix was added to each well to initiate the reaction. Reactions were monitored as described above.
Cells were plated in TDM media 24 hours earlier, different concentration of N3PT and 100 nM thiamine were added to the cells and treated for 48 hour to allow N3PT to exert its inhibitory effect (day 2; d2). The media was then changed to contain only 100 nM thiamine and one plate was assayed every day for the next five days (d3 to d7).

TK [2] = biological target: T1, TK; assay: Cell-based TK inhibition in thiamine-depleted media, 96-well format; set-up: endogenous in cells; conditions: treated cells, 48 hours treatment
Protocol: We determined the IC50 of compounds that inhibit the activity of the TPP utilizing enzymes TK, kGDH and PDH in a convenient 96-well format using an optimized version of the method described in the previous Examples.
The high thiamine levels in conventional cell culture media (e.g., DMEM (12 μM), RPMI (3 μM)) masks the inhibitory effect of such inhibitors. To measure the IC50 of such inhibitors, thus, a thiamine depleted DMEM, containing all the ingredients of normal DMEM except for thiamine (HyClone, custom order), was used. Thiamine-depleted media (TDM) is made up with thiamine-depleted DMEM, 10% FBS, which contains negligible amount of thiamine (estimated to be ˜3-5% nM) and 1% Penicillin-streptomycin.
Log-phase growing cells were trypsinized and resuspended in TDM. Optimization of the initial cell counts is recommended for each cell line to ensure that enzyme activity can be observed at the beginning and that healthy growth can continue. For cell lines that have a doubling time of approximately 24 hours and cellular transketolase levels high enough to be reliably detected with five thousand (5K) cells such as HCT116 and HT1080, 8K cells are recommended.
Media containing 8K cells (95 μl) were used to seed individual wells in a 96-well clear-bottom cell cultured treated sterile plate. […] Enzymatic inhibition was expressed as percent of control wells that were not treated with compounds. […]

Compound: Cc1ccc(C[n+]2csc(CCO)c2C)c(N)n1 [N3PT, 3-[(2-amino-6-methyl-3-pyridinyl)methyl]-5-(2-hydroxyethyl)-4-methyl thiazolium]
- Inhibition of TK in the presence of increased concentrations of thiamine (TK [1]): reduced by thiamine in a concentration dependent manner
- IC50 (TK [2]): 20 nM

Reference: patent US20070292888A1, “Methods for Measuring Enzyme Activities in Cells, Blood, Tumors and Tissues” (GEN-PATH PHARMACEUTICALS, INC., priority 2004, published 2007)
